# From US7935724B2, “Thiophene and benzothiophene hydroxamic acid derivatives” (Merck HDAC Research, LLC, priority 2003, dated 2011)
# Molecular target: T1, histone deacetylase, subtype 1 (HDAC1) (Homo sapiens, UniProt Q13547)
# T1 construct: Flag; made in house
# Experiment: HDAC1-Flag assay (in vitro deacetylation assay)
# Type: biochemical
# Conditions: Table 1, benzothiophene backbone; concentration for 50% inhibition of deacetylation; substrate at Km; unit inferred, text gives nm; read-out: HDAC Inhibition
# Description: Novel compounds were tested for their ability to inhibit histone deacetylase, subtype 1 (HDAC1) using an in vitro deacetylation assay. The enzyme source for this assay was an epitope-tagged human HDAC1 complex immuno-purified from stably expressing mammalian cells. The substrate consisted of a commercial product containing an acetylated lysine side chain (BIOMOL Research Laboratories, Inc., Plymouth Meeting, Pa.). Upon deacetylation of the substrate by incubation with the purified HDAC1 complex, a fluorophore is produced that is directly proportional to the level of deacetylation.
# T1 sequence (Q13547 whole entry): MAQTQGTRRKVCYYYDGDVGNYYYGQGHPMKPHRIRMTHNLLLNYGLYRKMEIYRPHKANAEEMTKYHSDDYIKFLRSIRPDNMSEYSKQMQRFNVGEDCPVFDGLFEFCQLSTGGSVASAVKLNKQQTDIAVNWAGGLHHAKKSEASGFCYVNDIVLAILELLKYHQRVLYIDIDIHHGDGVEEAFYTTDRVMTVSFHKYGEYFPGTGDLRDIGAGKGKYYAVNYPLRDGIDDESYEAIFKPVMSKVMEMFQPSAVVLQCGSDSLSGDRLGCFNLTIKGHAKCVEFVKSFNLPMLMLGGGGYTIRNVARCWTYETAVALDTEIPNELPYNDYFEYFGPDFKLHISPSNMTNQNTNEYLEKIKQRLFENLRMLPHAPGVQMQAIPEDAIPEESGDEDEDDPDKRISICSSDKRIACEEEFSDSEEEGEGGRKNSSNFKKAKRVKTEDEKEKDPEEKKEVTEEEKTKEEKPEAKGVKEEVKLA
row,IC50 [µM],SMILES
1,0.0115 ± 0.0021,O=C(Cc1ccccc1)Nc1ccc2cc(C(=O)NO)sc2c1 [Compound 6]
2,0.026 ± 0.0014,O=C(NO)c1cc2ccc(NS(=O)(=O)c3cccc4ccccc34)cc2s1 [Compound 13]
3,0.0215 ± 0.0035,O=C(NO)c1cc2ccc(NS(=O)(=O)c3ccc4ccccc4c3)cc2s1 [Compound 14]
4,0.14 ± 0.0141,O=C(NO)c1cc2cc(NC(=O)c3cccc4ccccc34)ccc2s1 [Compound 25]
5,0.0795 ± 0.0007,O=C(NO)c1cc2ccc(NC(=O)C(c3ccccc3)c3ccccc3)cc2s1 [Compound 28]
6,0.0565 ± 0.0162,O=C(Cc1ccc(F)cc1)Nc1ccc2sc(C(=O)NO)cc2c1 [Compound 84]
7,0.076 ± 0.0155,COc1ccc(CC(=O)Nc2ccc3sc(C(=O)NO)cc3c2)cc1OC [Compound 85]
8,0.111 ± 0.0233,COc1ccc(OC)c(CC(=O)Nc2ccc3sc(C(=O)NO)cc3c2)c1 [Compound 87]
9,0.053 ± 0.007,O=C(NCc1ccccc1)c1ccc2cc(C(=O)NO)sc2c1 [Compound 92]
10,0.0857 ± 0.0235,O=C(NCc1ccccn1)c1ccc2cc(C(=O)NO)sc2c1 [Compound 94]
11,0.0795 ± 0.0332,O=C(Cc1ccc(Cl)cc1)Nc1ccc2sc(C(=O)NO)cc2c1 [Compound 95]
12,0.083 ± 0.0212,COc1ccc(CC(=O)Nc2ccc3sc(C(=O)NO)cc3c2)cc1 [Compound 96]
13,14.4,CN(O)C(=O)c1cc2ccc(NC(=O)Cc3ccccc3)cc2s1 [Compound 102]
14,1.82 ± 0.508,Nc1ccccc1NC(=O)c1cc2ccccc2s1 [Compound 103]
15,0.582 ± 0.0098,O=C(Nc1ccccc1)c1ccc2sc(C(=O)NO)cc2c1 [Compound 104]
16,0.155 ± 0.0134,O=C(NCCc1ccccc1)c1ccc2sc(C(=O)NO)cc2c1 [Compound 105]
17,0.059 ± 0.0155,O=C(Cc1ccccn1)Nc1ccc2cc(C(=O)NO)sc2c1 [Compound 109]
18,0.076 ± 0.0212,O=C(NCc1ccccc1)c1ccc2sc(C(=O)NO)cc2c1 [Compound 111]
19,0.0745 ± 0.0077,O=C(NCCCc1ccccc1)c1ccc2sc(C(=O)NO)cc2c1 [Compound 112]
20,30.775 ± 0.007,CN(O)C(=O)c1cc2ccc(N(C)C(=O)Cc3ccccc3)cc2s1 [Compound 113]
21,0.15 ± 0.0127,CC(=O)N1CCN(CC(=O)Nc2ccc3cc(C(=O)NO)sc3c2)CC1 [Compound 114]
22,0.084 ± 0.0056,O=C(CN1CCOCC1)Nc1ccc2cc(C(=O)NO)sc2c1 [Compound 116]
23,0.206 ± 0.0509,O=C(CN(CCc1ccccc1)Cc1ccccc1)Nc1ccc2cc(C(=O)NO)sc2c1 [Compound 117]
24,0.236 ± 0.0289,CC(C)(C)OC(=O)CN(CC(=O)Nc1ccc2cc(C(=O)NO)sc2c1)CC(=O)OC(C)(C)C [Compound 118]
25,0.097 ± 0.021,O=C(CN1CCN(c2cccc(Cl)c2)CC1)Nc1ccc2cc(C(=O)NO)sc2c1 [Compound 120]

row,IC50 [µM],SMILES
1,0.184 ± 0.0582,O=C(CN1CCCN(C(=O)OCc2ccccc2)CC1)Nc1ccc2cc(C(=O)NO)sc2c1 [Compound 121]
2,0.163 ± 0.0352,CCOC(=O)N1CCN(CC(=O)Nc2ccc3cc(C(=O)NO)sc3c2)CC1 [Compound 122]
3,0.177 ± 0.016,COc1ccc(N2CCN(CC(=O)Nc3ccc4cc(C(=O)NO)sc4c3)CC2)cc1 [Compound 124]
4,0.164 ± 0.0014,O=C(NO)c1cc2ccc(NC(=O)C3(c4ccc(Cl)cc4)CC3)cc2s1 [Compound 125]
5,0.144 ± 0.0637,O=C(NCCc1cc2ccccc2[nH]1)c1ccc2cc(C(=O)NO)sc2c1 [Compound 128]
6,0.261 ± 0.0892,O=C(NC1CCN(Cc2ccccc2)CC1)c1ccc2cc(C(=O)NO)sc2c1 [Compound 129]
7,0.163 ± 0.0403,O=C(NCC(c1ccccc1)c1ccccc1)c1ccc2cc(C(=O)NO)sc2c1 [Compound 130]
8,0.223 ± 0.0113,O=C(NC(Cc1ccccc1)c1ccccc1)c1ccc2cc(C(=O)NO)sc2c1 (stereo not drawn) [Compound 131]
9,0.284 ± 0.0452,O=C(NC(c1ccccc1)c1ccccc1)c1ccc2cc(C(=O)NO)sc2c1 [Compound 132]
10,0.0303 ± 0.0065,O=C(NCc1nc2ccccc2[nH]1)c1ccc2cc(C(=O)NO)sc2c1 [Compound 133]
11,0.146 ± 0.0103,O=C(NCCc1ccccn1)c1ccc2cc(C(=O)NO)sc2c1 [Compound 134]
12,0.424 ± 0.0727,O=C(NO)c1cc2ccc(C(=O)N3CCCCC3)cc2s1 [Compound 136]
13,0.615 ± 0.207,O=C(Nc1ccccc1)c1ccc2cc(C(=O)NO)sc2c1 [Compound 137]
14,0.922 ± 0.174,O=C(NC1CCc2ccccc21)c1ccc2cc(C(=O)NO)sc2c1 (stereo not drawn) [Compound 138]
15,0.176 ± 0.0134,O=C(NO)c1cc2ccc(C(=O)N3CCN(c4ccccc4)CC3)cc2s1 [Compound 139]
16,0.869 ± 0.108,O=C(NO)c1cc2cc(CNC(c3ccccc3)c3ccccc3)ccc2s1 [Compound 140]
17,0.116 ± 0.0035,O=C(NO)c1cc2cc(CNCc3nc4ccccc4[nH]3)ccc2s1 [Compound 141]
18,0.325 ± 0.0574,COc1ccc(CCNCc2ccc3sc(C(=O)NO)cc3c2)cc1OC [Compound 143]
19,1.58 ± 0.334,O=C(NO)c1cc2cc(CNCCc3ccc(OCc4ccccc4)c(OCc4ccccc4)c3)ccc2s1 [Compound 144]
20,0.0965 ± 0.0344,O=C(NO)c1cc2cc(CNCc3ccccc3Cl)ccc2s1 [Compound 149]
21,0.1445 ± 0.0007,O=C(NO)c1cc2cc(CNCc3cccc(Cl)c3)ccc2s1 [Compound 150]
22,0.415 ± 0.0916,O=C(NO)c1cc2cc(CNCC(c3ccccc3)c3ccccc3)ccc2s1 [Compound 152]
23,0.441 ± 0.0982,O=C(NO)c1cc2ccc(C(=O)N3CCN(c4ccc(Cl)cc4)CC3)cc2s1 [Compound 158]
24,0.536 ± 0.168,CC(C)(C(=O)Nc1ccc2cc(C(=O)NO)sc2c1)c1ccc(Cl)cc1 [Compound 159]
25,0.09 ± 0.0113,O=C(NCCCc1ccccc1)c1ccc2cc(C(=O)NO)sc2c1 [Compound 160]

row,IC50 [µM],SMILES
1,0.058,O=C(NCCc1ccccc1)c1ccc2cc(C(=O)NO)sc2c1 [Compound 161]
2,0.734 ± 0.0346,O=C(NO)c1cc2cc(CNCCN3CCOCC3)ccc2s1 [Compound 163]
3,0.269 ± 0.0636,O=C(NO)c1cc2cc(CNc3cccc(OCc4ccccc4)c3)ccc2s1 [Compound 165]
4,0.09 ± 0.0056,COc1ccccc1CNC(=O)c1ccc2sc(C(=O)NO)cc2c1 [Compound 166]
5,0.094 ± 0.0056,COc1cccc(CNC(=O)c2ccc3sc(C(=O)NO)cc3c2)c1 [Compound 167]
6,0.036 ± 0.0014,COc1ccc(CNC(=O)c2ccc3sc(C(=O)NO)cc3c2)cc1 [Compound 168]
7,0.0665 ± 0.0021,O=C(NCc1ccccc1Cl)c1ccc2sc(C(=O)NO)cc2c1 [Compound 169]
8,0.088,O=C(NCc1cccc(Cl)c1)c1ccc2sc(C(=O)NO)cc2c1 [Compound 170]
9,0.0635 ± 0.0049,O=C(NCc1ccc(Cl)cc1)c1ccc2sc(C(=O)NO)cc2c1 [Compound 171]
10,1.36 ± 0.0473,O=C(NC1CCc2ccccc21)c1ccc2sc(C(=O)NO)cc2c1 (stereo not drawn) [Compound 172]
11,0.129 ± 0.0183,O=C(NCCc1c[nH]c2ccccc12)c1ccc2sc(C(=O)NO)cc2c1 [Compound 173]
12,0.428 ± 0.102,O=C(NCCC(c1ccccc1)c1ccccc1)c1ccc2sc(C(=O)NO)cc2c1 [Compound 174]
13,0.154 ± 0.0084,O=C(NCCCCc1ccccc1)c1ccc2sc(C(=O)NO)cc2c1 [Compound 175]
14,0.126 ± 0.0311,O=C(NCc1ccc(Cl)cc1)c1ccc2cc(C(=O)NO)sc2c1 [Compound 176]
15,0.102 ± 0.0262,O=C(CN(CC(=O)Nc1ccccc1)C(=O)c1ccc2sc(C(=O)NO)cc2c1)Nc1ccccc1 [Compound 179]
16,1.07 ± 0.0219,O=C(Nc1cccc2cccnc12)c1ccc2cc(C(=O)NO)sc2c1 [Compound 182]
17,4.14 ± 1.89,O=C(Nc1nc(-c2ccccc2)cs1)c1ccc2cc(C(=O)NO)sc2c1 [Compound 183]
18,0.199 ± 0.0353,O=C(NO)c1cc2ccc(COCc3ccccc3)cc2s1 [Compound 184]
19,0.17 ± 0.0388,O=C(NO)c1cc2ccc(C(=O)N3CCC(Cc4ccccc4)CC3)cc2s1 [Compound 190]
20,0.453 ± 0.114,O=C(NO)c1cc2ccc(C(=O)N3CCN(Cc4ccccc4)CC3)cc2s1 [Compound 191]
21,0.053,O=C(NO)c1cc2ccc(CNCc3ccccc3)cc2s1 [Compound 192]
22,0.099,COc1ccc(CN(Cc2ccc3cc(C(=O)NO)sc3c2)C2CCCCC2)cc1 [Compound 193]
23,0.076,COc1ccc(CN(Cc2ccc3cc(C(=O)NO)sc3c2)C2CCOCC2)cc1 [Compound 194]

# Same assay, conditions: Table 2, thiophene backbone; concentration for 50% inhibition of deacetylation; substrate at Km; unit inferred, text gives nm; read-out: HDAC Inhibition
row,IC50 [µM],SMILES
1,0.581,O=C(CCc1ccc(C(=O)NO)s1)NCC(c1ccccc1)c1ccccc1 [Compound 83]
2,0.127 ± 0.0113,O=C(CCc1ccc(C(=O)NO)s1)Nc1cccc(OCc2ccccc2)c1 [Compound 195]
3,1.45 ± 0.111,O=C(CCc1ccc(C(=O)NO)s1)NCC1CCCCC1 [Compound 196]
4,0.134 ± 0.0077,O=C(CCc1ccc(C(=O)NO)s1)Nc1nc2ccccc2s1 [Compound 197]
5,9.26 ± 1.18,O=C(NO)c1cc(-c2ccccc2)cs1 [Compound 199]

# System: murine erythroleukemia cell line SC9
# Experiment: MTS assay (Cell Titer 96 Aqueous One Solution Cell Proliferation Assay)
# Type: cell-based
# Conditions: Mus musculus, SC9, 48 h, Table 3, concentration inhibiting proliferation of SC9 cells, unit inferred, unit nm
# Description: The novel compounds of the present invention were tested for their ability to inhibit proliferation of the murine erythroleukemia cell line SC9.
# The MTS assay, also referred to as the Cell Titer 96 Aqueous One Solution Cell Proliferation Assay, is a calorimetric method for determining the number of viable cells in proliferation, cytotoxicity or chemosensitivity assays. The MTS reagent contains a novel tetrazolium compound [3-(4,5-dimethylthiazol-2-yl)-5-(3-carboxymethoxyphenyl)-2-(4-sulfophenyl)-2H-tetrazolium, inner salt] and electron coupling reagent (phenazine ethosulfate;PES). Murine erythroleukemia cells (SC-9) were incubated with vehicle or increasing concentrations of compound for 48 hours. Cell proliferation was quantitated by adding a small amount of the MTS reagent directly to culture wells, incubating for 1-4 hours and then recording the absorbance at 490 nm with a 96-well plate reader. The quantity of formazan product, as measured by […] absorbance, is directly proportional to the number of living cells in culture.
row,IC50 [µM],SMILES
1,0.25 ± 0.0572,O=C(Cc1ccccc1)Nc1ccc2cc(C(=O)NO)sc2c1 [Compound 6]
2,0.441,O=C(NO)c1cc2ccc(NS(=O)(=O)c3cccc4ccccc34)cc2s1 [Compound 13]
3,0.917,O=C(NO)c1cc2ccc(NS(=O)(=O)c3ccc4ccccc4c3)cc2s1 [Compound 14]
4,0.545,O=C(NO)c1cc2cc(NC(=O)c3cccc4ccccc34)ccc2s1 [Compound 25]
5,0.696,O=C(NO)c1cc2ccc(NC(=O)C(c3ccccc3)c3ccccc3)cc2s1 [Compound 28]
6,0.836,O=C(NC1CCCc2ccccc21)c1ccc2cc(C(=O)NO)sc2c1 (stereo not drawn) [Compound 135]
